Measured values published in patent publication US11708562B2, “Differentiation of human embryonic stem cells” (Janssen Biotech, Inc., priority 2006, dated 2023).

Test system: H9P83 cells on MATRIGEL and H9P44 cells on MEFs
Experiment: Microarray analysis of gene expression after definitive endoderm formation (Table IV)
Assay type: cell-based, human
Conditions: after 5 days of treatment
Protocol: Controls for each group included cells plated on […]-coated dishes and cultured in MEF-conditioned medium or cells plated on MEFs and cultured in ES medium.
Sample preparation, hybridization, and image analysis were performed according to the Affymetrix Human Genome U133 Plus 2.0 Array. Following normalization and a log transformation, data analysis was performed using OmniViz® software (MA) and […] (VizXLabs, WA). The variability within each treatment and among the different treatments was compared using the Pearson correlation coefficient. […] Significant differences in gene expression between the samples were evaluated using analysis of variance and an F-test with adjusted P-value (Benjamini and Hochberg correction) of ≤0.05. Only genes with a present call were included in the analysis.

[1] = H9P44 on MEFs-DE stage, undifferentiated H9P44 on MEFs 2.17
[2] = H9P44 on MEFs-DE stage, undifferentiated H9P44 on MEFs 2.18
[3] = H9P44 on MEFs-DE stage, undifferentiated H9P44 on MEFs 3.80
[4] = H9P83 on Matrigel-DE stage, undifferentiated H9P83 on Matrigel 1.38

## Activin A: a member of the TGFβ superfamily; growth factor (R&D Systems) used to differentiate human embryonic stem cells
H9P44 on MEFs-DE stage
  expression of HCN1 (BM682352, cDNA FLJ37204 fis, clone BRALZ2006976): −3.88
  expression of INDO (M34455, indoleamine 2,3-dioxygenase (IDO)): 1.69
  expression of JAKMIP2 (BU729850, hypothetical protein LOC153469): −1.56
  expression of LOC157627 (AL832535, cDNA DKFZp547J1816): −1.50
  expression of PCSK1 (NM_000439, proprotein convertase subtilisinkexin type 1): −3.19
  expression of SMOC2 (AB014737, mRNA for SMAP-2b): −2.27
H9P44 on MEFs-DE stage, undifferentiated H9P44 on MEFs 0.12
  SCNN1G (AI985987) gene expression: −2.70
H9P44 on MEFs-DE stage, undifferentiated H9P44 on MEFs 0.25
  TMEM16A (NM_018043) gene expression: −3.93
H9P44 on MEFs-DE stage, undifferentiated H9P44 on MEFs 0.33
  LOC646326 (BE972639) gene expression: −2.24
H9P44 on MEFs-DE stage, undifferentiated H9P44 on MEFs 0.96
  COL14A1 (AI693516) gene expression: −1.81
H9P44 on MEFs-DE stage, undifferentiated H9P44 on MEFs 1.03
  AK5 (BG169832) gene expression: −1.94
H9P44 on MEFs-DE stage, undifferentiated H9P44 on MEFs 1.13
  C9orf39 (AA280904) gene expression: −0.78
H9P44 on MEFs-DE stage, undifferentiated H9P44 on MEFs 1.15
  LOC200230 (AI056877) gene expression: −1.35
H9P44 on MEFs-DE stage, undifferentiated H9P44 on MEFs 1.18
  CTNND2 (U96136) gene expression: −1.17
H9P44 on MEFs-DE stage, undifferentiated H9P44 on MEFs 1.27
  SDK2 (N23651) gene expression: −2.07
H9P44 on MEFs-DE stage, undifferentiated H9P44 on MEFs 1.35
  SAMHD1 (AF147427) gene expression: −2.30
H9P44 on MEFs-DE stage, undifferentiated H9P44 on MEFs 1.46
  PAH (NM_000277) gene expression: −0.42
H9P44 on MEFs-DE stage, undifferentiated H9P44 on MEFs 1.55
  AL120674 (ESTs) gene expression: −2.20
H9P44 on MEFs-DE stage, undifferentiated H9P44 on MEFs 1.77
  AI742043 (ESTs) gene expression: −1.45
H9P44 on MEFs-DE stage, undifferentiated H9P44 on MEFs 1.93
  DAZL (NM_001351) gene expression: −0.73
H9P44 on MEFs-DE stage, undifferentiated H9P44 on MEFs 2.05
  PSMB9 (NM_002800) gene expression: −1.43
H9P44 on MEFs-DE stage, undifferentiated H9P44 on MEFs 2.07
  BF698797 (ESTs) gene expression: −0.40
H9P44 on MEFs-DE stage, undifferentiated H9P44 on MEFs 2.12
  AF107846 (neuroendocrine-specific Golgi protein p55 (XLalphas) gene) expression: −2.56
[1]
  CHST8 (NM_022467) gene expression: 0.48
  NPTX1 (NM_002522) gene expression: −1.19
[2]
  FGF19 (AF110400) gene expression: −0.91
  PCDH8 (NM_002590) gene expression: 0.12
H9P44 on MEFs-DE stage, undifferentiated H9P44 on MEFs 2.26
  LOC157627 (AF052108) gene expression: −1.33
H9P44 on MEFs-DE stage, undifferentiated H9P44 on MEFs 2.28
  C10orf96 (BC044830) gene expression: −1.39
H9P44 on MEFs-DE stage, undifferentiated H9P44 on MEFs 2.35
  CR2 (NM_001877) gene expression: −1.44
H9P44 on MEFs-DE stage, undifferentiated H9P44 on MEFs 2.89
  SAMHD1 (NM_015474) gene expression: 0.29
H9P44 on MEFs-DE stage, undifferentiated H9P44 on MEFs 3.30
  PSMB8 (U17496) gene expression: 0.09
H9P44 on MEFs-DE stage, undifferentiated H9P44 on MEFs 3.32
  HHIP (AK098525) gene expression: −0.11
H9P44 on MEFs-DE stage, undifferentiated H9P44 on MEFs 3.67
  KCNG3 (NM_133329) gene expression: 0.26
H9P44 on MEFs-DE stage, undifferentiated H9P44 on MEFs 3.69
  STXBP6 (N21096) gene expression: 1.14
[3]
  NMI (NM_004688) gene expression: 1.13
  RMST (BE468066) gene expression: 1.63
H9P44 on MEFs-DE stage, undifferentiated H9P44 on MEFs 4.00
  TOX (AI961231) gene expression: 1.13
H9P44 on MEFs-DE stage, undifferentiated H9P44 on MEFs 4.57
  C20orf118 (BF437747) gene expression: 1.75
H9P44 on MEFs-DE stage, undifferentiated H9P44 on MEFs 4.76
  C20orf118 (AV715309) gene expression: 1.48
H9P44 on MEFs-DE stage, undifferentiated H9P44 on MEFs 4.98
  FEZ1 (NM_005103) gene expression: 2.20
H9P44 on MEFs-DE stage, undifferentiated H9P44 on MEFs 5.01
  SCG5 (NM_003020) gene expression: 3.11
H9P44 on MEFs-DE stage, undifferentiated H9P44 on MEFs 5.36
  LECT1 (NM_007015) gene expression: 1.83
H9P44 on MEFs-DE stage, undifferentiated H9P44 on MEFs −0.10
  IFIH1 (NM_022168) gene expression: −2.15
H9P44 on MEFs-DE stage, undifferentiated H9P44 on MEFs −0.34
  ATP5S (BE968806) gene expression: −4.73
H9P44 on MEFs-DE stage, undifferentiated H9P44 on MEFs −0.49
  PAK7 (AB040812) gene expression: −4.18
H9P83 on Matrigel-DE stage
  expression of HCN1 (BM682352, cDNA FLJ37204 fis, clone BRALZ2006976): −4.38
  expression of INDO (M34455, indoleamine 2,3-dioxygenase (IDO)): 1.58
  expression of JAKMIP2 (BU729850, hypothetical protein LOC153469): 0.43
  expression of LOC157627 (AL832535, cDNA DKFZp547J1816): −0.04
  expression of PCSK1 (NM_000439, proprotein convertase subtilisinkexin type 1): −2.68
  expression of SMOC2 (AB014737, mRNA for SMAP-2b): −2.04
H9P83 on Matrigel-DE stage, undifferentiated H9P83 on Matrigel 0.00
  LOC646326 (BE972639) gene expression: −2.71
H9P83 on Matrigel-DE stage, undifferentiated H9P83 on Matrigel 0.11
  LOC200230 (AI056877) gene expression: −2.37
H9P83 on Matrigel-DE stage, undifferentiated H9P83 on Matrigel 0.23
  C9orf39 (AA280904) gene expression: −1.58
H9P83 on Matrigel-DE stage, undifferentiated H9P83 on Matrigel 0.39
  COL14A1 (AI693516) gene expression: −1.63
H9P83 on Matrigel-DE stage, undifferentiated H9P83 on Matrigel 0.44
  AF107846 (neuroendocrine-specific Golgi protein p55 (XLalphas) gene) expression: −0.25
H9P83 on Matrigel-DE stage, undifferentiated H9P83 on Matrigel 0.62
  AK5 (BG169832) gene expression: −2.79
H9P83 on Matrigel-DE stage, undifferentiated H9P83 on Matrigel 0.65
  PAH (NM_000277) gene expression: −1.08
H9P83 on Matrigel-DE stage, undifferentiated H9P83 on Matrigel 0.78
  CTNND2 (U96136) gene expression: −1.33
H9P83 on Matrigel-DE stage, undifferentiated H9P83 on Matrigel 0.93
  BF698797 (ESTs) gene expression: −0.74
H9P83 on Matrigel-DE stage, undifferentiated H9P83 on Matrigel 0.94
  AI742043 (ESTs) gene expression: −0.76
H9P83 on Matrigel-DE stage, undifferentiated H9P83 on Matrigel 1.00
  AL120674 (ESTs) gene expression: −1.35
H9P83 on Matrigel-DE stage, undifferentiated H9P83 on Matrigel 1.33
  SAMHD1 (AF147427) gene expression: −0.99
[4]
  C10orf96 (BC044830) gene expression: −0.32
  PSMB9 (NM_002800) gene expression: 0.27
H9P83 on Matrigel-DE stage, undifferentiated H9P83 on Matrigel 1.49
  LOC157627 (AF052108) gene expression: 0.22
H9P83 on Matrigel-DE stage, undifferentiated H9P83 on Matrigel 1.50
  CR2 (NM_001877) gene expression: −0.43
H9P83 on Matrigel-DE stage, undifferentiated H9P83 on Matrigel 1.69
  DAZL (NM_001351) gene expression: −0.81
H9P83 on Matrigel-DE stage, undifferentiated H9P83 on Matrigel 1.76
  HHIP (AK098525) gene expression: −0.57
H9P83 on Matrigel-DE stage, undifferentiated H9P83 on Matrigel 2.11
  CHST8 (NM_022467) gene expression: −0.51
H9P83 on Matrigel-DE stage, undifferentiated H9P83 on Matrigel 2.12
  FGF19 (AF110400) gene expression: −0.08
H9P83 on Matrigel-DE stage, undifferentiated H9P83 on Matrigel 2.18
  KCNG3 (NM_133329) gene expression: 0.74
H9P83 on Matrigel-DE stage, undifferentiated H9P83 on Matrigel 2.35
  NPTX1 (NM_002522) gene expression: −0.48
H9P83 on Matrigel-DE stage, undifferentiated H9P83 on Matrigel 2.42
  STXBP6 (N21096) gene expression: 0.99
H9P83 on Matrigel-DE stage, undifferentiated H9P83 on Matrigel 2.63
  SAMHD1 (NM_015474) gene expression: 0.57
H9P83 on Matrigel-DE stage, undifferentiated H9P83 on Matrigel 2.80
  FEZ1 (NM_005103) gene expression: 2.08
H9P83 on Matrigel-DE stage, undifferentiated H9P83 on Matrigel 3.26
  RMST (BE468066) gene expression: 1.49
H9P83 on Matrigel-DE stage, undifferentiated H9P83 on Matrigel 3.28
  TOX (AI961231) gene expression: 1.23
H9P83 on Matrigel-DE stage, undifferentiated H9P83 on Matrigel 3.43
  PSMB8 (U17496) gene expression: 0.46
H9P83 on Matrigel-DE stage, undifferentiated H9P83 on Matrigel 3.54
  NMI (NM_004688) gene expression: 0.96
